# Measured values as given in patent publication US6844435B2, “Heterocyclic compounds useful as inhibitors of tyrosine kinases” (Boehringer Ingelheim Pharmaceuticals, Inc., priority 2000, dated 2005).
row,SMILES,melting point
1,"Cn1c(Nc2c(Cl)cccc2Cl)nc2ccc3nc(-c4ccccc4)[nH]c(=O)c3c21 [Example 7, 2-(2,6-Dichlorophenylamino)-1-methyl-7-phenyl-1,8-dihydro-9H-imidazo[4,5-f]quinazoline-9-one]",> 300 °C
2,Cn1c(Nc2c(Cl)cccc2Cl)nc2ccc3nc(-c4cccc(S(=O)(=O)N5CCN(C(=N)N)CC5)c4)[nH]c(=O)c3c21 [Example 90],215 °C
3,Cn1c(Nc2c(Cl)cccc2Cl)nc2ccc3nc(CC4=CCCC4)[nH]c(=O)c3c21 [Example 40],258 °C (dec.)
4,CC(C)=Cc1nc2ccc3nc(Nc4c(Cl)cccc4Cl)n(C)c3c2c(=O)[nH]1 [Example 28],> 300 °C
5,C/C(=C\c1cccc(C#N)c1)c1nc2ccc3nc(Nc4c(Cl)cccc4Cl)n(C)c3c2c(=O)[nH]1 [Example 70],288 to 290 °C
6,Cn1c(Nc2c(Cl)cccc2Cl)nc2ccc3nc(C4=CC5C=CC4N5)[nH]c(=O)c3c21 (stereo not shown),> 300 °C
7,Cn1c(Nc2c(Cl)cccc2Cl)nc2ccc3nc(C4=CC5C=CC4N5C(=O)OCc4ccccc4)[nH]c(=O)c3c21 (stereo not shown),> 275 °C (dec.)
8,Cn1c(Nc2c(Cl)cccc2Cl)nc2ccc3nc(C4=CCNC4)[nH]c(=O)c3c21 [Example 86],240 to 241 °C (dec.)
9,Cn1c(Nc2c(Cl)cccc2Cl)nc2ccc3nc(C4CC4)[nH]c(=O)c3c21 [Example 59],> 300 °C
10,Cn1c(Nc2c(Cl)cccc2Cl)nc2ccc3nc(-c4cccc([N+](=O)[O-])c4)[nH]c(=O)c3c21 [Example 18],> 300 °C
11,Cc1nc(-c2nc3ccc4nc(Nc5c(Cl)cccc5Cl)n(C)c4c3c(=O)[nH]2)cs1 [Example 79],295 °C (dec.)
12,CN1c2ccc3nc(Nc4c(Cl)cccc4Cl)n(C)c3c2C(=O)NC1c1ccccc1 (stereo not shown) [Example 88],228 to 230 °C
13,Cn1c(Nc2c(Cl)cccc2Cl)nc2ccc3nc(-c4cccc(S(=O)(=O)N5CCN(C(=O)OC(C)(C)C)CC5)c4)[nH]c(=O)c3c21 [Example 67],189 °C

# More lines, now with the values ahead:
row,melting point,SMILES
1,284 to 288 °C,C/C(=C\c1ccccc1C#N)c1nc2ccc3nc(Nc4c(Cl)cccc4Cl)n(C)c3c2c(=O)[nH]1 [Example 102]
2,> 300 °C,"CCn1c(Nc2c(Cl)cccc2Cl)nc2ccc3nc[nH]c(=O)c3c21 [Example 5, 2-(2,6-Dichlorophenylamino)-1-ethyl-1,8-dihydro-9H-imidazo[4,5-f]quinazoline-9-one]"
3,210 to 215 °C,Cn1c(Nc2c(Cl)cccc2Cl)nc2ccc3nc(C4=CC5CN(C(=O)OC(C)(C)C)CC5C4)[nH]c(=O)c3c21 (stereo not shown) [Example 94]
4,> 300 °C,Cn1c(Nc2c(Cl)cccc2Cl)nc2ccc3nc(C(N)=O)[nH]c(=O)c3c21 [Example 27]
5,246 °C (dec.),CC(=O)OCC(=O)N1CCN(S(=O)(=O)c2cccc(-c3nc4ccc5nc(Nc6c(Cl)cccc6Cl)n(C)c5c4c(=O)[nH]3)c2)CC1 [Example 85]
6,> 300 °C,Cn1c(Nc2c(Cl)cccc2Cl)nc2ccc3nc(-c4csc(-c5cccc([N+](=O)[O-])c5)n4)[nH]c(=O)c3c21 [Example 24]
